Measured values taken from PubChem BioAssay (NCI).
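Assay format: 96-well plates, 48-hour exposure. The concentration for 50% growth inhibition is given as GI50. The concentration for full growth arrest is given as TGI.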

Key:
Assay in all cases: NCI-60 cell line screen, 48 h
RPMI-8226 leukemia = system: RPMI-8226 leukemia
786-0 renal = system: 786-0 renal
BT-549 breast = system: BT-549 breast
OVCAR-8 ovarian = system: OVCAR-8 ovarian
MDA-MB-435 = system: MDA-MB-435
SR leukemia = system: SR leukemia
ACHN renal = system: ACHN renal
OVCAR-4 ovarian = system: OVCAR-4 ovarian
SNB-19 CNS = system: SNB-19 CNS
SF-268 CNS = system: SF-268 CNS
IGROV1 ovarian = system: IGROV1 ovarian
K-562 leukemia = system: K-562 leukemia
HCC-2998 colon = system: HCC-2998 colon
SNB-75 CNS = system: SNB-75 CNS
NCI-H460 lung = system: NCI-H460 lung
UACC-257 melanoma = system: UACC-257 melanoma
OVCAR-5 ovarian = system: OVCAR-5 ovarian
HT29 colon = system: HT29 colon
SF-539 CNS = system: SF-539 CNS
MDA-MB-231 breast = system: MDA-MB-231 breast
SK-OV-3 ovarian = system: SK-OV-3 ovarian
CCRF-CEM leukemia = system: CCRF-CEM leukemia
RXF 393 renal = system: RXF 393 renal
TK-10 renal = system: TK-10 renal
UO-31 renal = system: UO-31 renal
HOP-62 NSCLC = system: HOP-62 NSCLC
A549 NSCLC = system: A549 NSCLC
HCT-15 colon = system: HCT-15 colon
UACC-62 melanoma = system: UACC-62 melanoma
SK-MEL-2 melanoma = system: SK-MEL-2 melanoma
A498 renal = system: A498 renal
NCI/ADR-RES ovarian = system: NCI/ADR-RES ovarian
EKVX NSCLC = system: EKVX NSCLC
CAKI-1 renal = system: CAKI-1 renal
DU-145 prostate = system: DU-145 prostate
HOP-92 NSCLC = system: HOP-92 NSCLC
MOLT-4 leukemia = system: MOLT-4 leukemia
MCF7 breast = system: MCF7 breast
PC-3 prostate = system: PC-3 prostate
SF-295 CNS = system: SF-295 CNS
SK-MEL-28 melanoma = system: SK-MEL-28 melanoma
HS 578T breast = system: HS 578T breast
KM12 colon = system: KM12 colon
U251 CNS = system: U251 CNS
T-47D breast = system: T-47D breast
COLO 205 colon = system: COLO 205 colon
OVCAR-3 ovarian = system: OVCAR-3 ovarian
HL-60(TB) leukemia = system: HL-60(TB) leukemia
NCI-H226 lung = system: NCI-H226 lung
HCT-116 colon = system: HCT-116 colon

Question: With Fc1ccc(-c2cc3nc(C(Cl)Cl)nc(-c4ccccc4)n3n2)cc1 as the molecule, how does the GI50 (RPMI-8226 leukemia) read?
Answer: 2200 nM

Question: What about the TGI (RPMI-8226 leukemia) of the same molecule?
Answer: 10000 nM

Question: What about the GI50 (786-0 renal) of the same molecule?
Answer: 6330 nM

Question: What about the TGI (786-0 renal) of the same molecule?
Answer: > 100000 nM

Question: What about the GI50 (BT-549 breast) of the same molecule?
Answer: 5440 nM

Question: What about the TGI (BT-549 breast) of the same molecule?
Answer: > 100000 nM

Question: What about the GI50 (OVCAR-8 ovarian) of the same molecule?
Answer: 1410 nM

Question: What about the TGI (OVCAR-8 ovarian) of the same molecule?
Answer: 3870 nM

Question: And the GI50 (MDA-MB-435)?
Answer: 1810 nM

Question: What about the TGI (MDA-MB-435) of the same molecule?
Answer: 3770 nM

Question: And the GI50 (SR leukemia)?
Answer: 2170 nM

Question: And the TGI (SR leukemia)?
Answer: > 100000 nM

Question: What about the GI50 (ACHN renal) of the same molecule?
Answer: 777 nM

Question: What about the TGI (ACHN renal) of the same molecule?
Answer: 3020 nM

Question: What about the GI50 (OVCAR-4 ovarian) of the same molecule?
Answer: 2150 nM

Question: And the TGI (OVCAR-4 ovarian)?
Answer: 7320 nM

Question: And the GI50 (SNB-19 CNS)?
Answer: 1580 nM

Question: What about the TGI (SNB-19 CNS) of the same molecule?
Answer: 6600 nM

Question: And the GI50 (SF-268 CNS)?
Answer: 1810 nM

Question: What about the TGI (SF-268 CNS) of the same molecule?
Answer: 5210 nM

Question: What about the GI50 (IGROV1 ovarian) of the same molecule?
Answer: 4080 nM

Question: And the TGI (IGROV1 ovarian)?
Answer: > 100000 nM

Question: What about the GI50 (K-562 leukemia) of the same molecule?
Answer: 2580 nM

Question: What about the TGI (K-562 leukemia) of the same molecule?
Answer: > 100000 nM

Question: And the GI50 (HCC-2998 colon)?
Answer: 1180 nM

Question: And the TGI (HCC-2998 colon)?
Answer: 2550 nM

Question: And the GI50 (SNB-75 CNS)?
Answer: 7550 nM

Question: What about the TGI (SNB-75 CNS) of the same molecule?
Answer: > 100000 nM

Question: And the GI50 (NCI-H460 lung)?
Answer: 513 nM

Question: And the TGI (NCI-H460 lung)?
Answer: 2070 nM

Question: And the GI50 (UACC-257 melanoma)?
Answer: 2110 nM

Question: And the TGI (UACC-257 melanoma)?
Answer: 4230 nM

Question: And the GI50 (OVCAR-5 ovarian)?
Answer: 2290 nM

Question: And the TGI (OVCAR-5 ovarian)?
Answer: 6770 nM

Question: And the GI50 (HT29 colon)?
Answer: 737 nM

Question: And the TGI (HT29 colon)?
Answer: 2670 nM

Question: What about the GI50 (SF-539 CNS) of the same molecule?
Answer: 1970 nM

Question: And the TGI (SF-539 CNS)?
Answer: 5120 nM

Question: And the GI50 (MDA-MB-231 breast)?
Answer: 1760 nM

Question: What about the TGI (MDA-MB-231 breast) of the same molecule?
Answer: 5760 nM

Question: What about the GI50 (SK-OV-3 ovarian) of the same molecule?
Answer: 2190 nM

Question: What about the TGI (SK-OV-3 ovarian) of the same molecule?
Answer: 5130 nM

Question: What about the GI50 (CCRF-CEM leukemia) of the same molecule?
Answer: 6500 nM

Question: What about the TGI (CCRF-CEM leukemia) of the same molecule?
Answer: > 100000 nM

Question: What about the GI50 (RXF 393 renal) of the same molecule?
Answer: 1210 nM

Question: And the TGI (RXF 393 renal)?
Answer: 2550 nM

Question: What about the GI50 (TK-10 renal) of the same molecule?
Answer: 2130 nM

Question: And the TGI (TK-10 renal)?
Answer: 5260 nM

Question: What about the GI50 (UO-31 renal) of the same molecule?
Answer: 1730 nM

Question: And the TGI (UO-31 renal)?
Answer: 4200 nM

Question: What about the GI50 (HOP-62 NSCLC) of the same molecule?
Answer: 1480 nM

Question: And the TGI (HOP-62 NSCLC)?
Answer: 3720 nM

Question: What about the GI50 (A549 NSCLC) of the same molecule?
Answer: 1100 nM

Question: What about the TGI (A549 NSCLC) of the same molecule?
Answer: 2600 nM

Question: What about the GI50 (HCT-15 colon) of the same molecule?
Answer: 1350 nM

Question: And the TGI (HCT-15 colon)?
Answer: 6430 nM

Question: What about the GI50 (UACC-62 melanoma) of the same molecule?
Answer: 2470 nM

Question: What about the TGI (UACC-62 melanoma) of the same molecule?
Answer: 8120 nM

Question: What about the GI50 (SK-MEL-2 melanoma) of the same molecule?
Answer: 4460 nM

Question: And the TGI (SK-MEL-2 melanoma)?
Answer: > 100000 nM

Question: What about the GI50 (A498 renal) of the same molecule?
Answer: 1810 nM

Question: And the TGI (A498 renal)?
Answer: 3550 nM

Question: What about the GI50 (NCI/ADR-RES ovarian) of the same molecule?
Answer: 1430 nM

Question: What about the TGI (NCI/ADR-RES ovarian) of the same molecule?
Answer: 6210 nM

Question: What about the GI50 (EKVX NSCLC) of the same molecule?
Answer: 2040 nM

Question: And the TGI (EKVX NSCLC)?
Answer: 5580 nM

Question: What about the GI50 (CAKI-1 renal) of the same molecule?
Answer: 1820 nM

Question: What about the TGI (CAKI-1 renal) of the same molecule?
Answer: 6200 nM

Question: And the GI50 (DU-145 prostate)?
Answer: 411 nM

Question: And the TGI (DU-145 prostate)?
Answer: 2330 nM

Question: What about the GI50 (HOP-92 NSCLC) of the same molecule?
Answer: 1900 nM

Question: What about the TGI (HOP-92 NSCLC) of the same molecule?
Answer: 4810 nM

Question: And the GI50 (MOLT-4 leukemia)?
Answer: 3180 nM

Question: What about the TGI (MOLT-4 leukemia) of the same molecule?
Answer: > 100000 nM

Question: And the GI50 (MCF7 breast)?
Answer: 673 nM

Question: And the TGI (MCF7 breast)?
Answer: 7370 nM

Question: What about the GI50 (PC-3 prostate) of the same molecule?
Answer: 1750 nM

Question: And the TGI (PC-3 prostate)?
Answer: 4390 nM

Question: And the GI50 (SF-295 CNS)?
Answer: 2210 nM

Question: What about the TGI (SF-295 CNS) of the same molecule?
Answer: 5630 nM

Question: And the GI50 (SK-MEL-28 melanoma)?
Answer: 2010 nM

Question: What about the TGI (SK-MEL-28 melanoma) of the same molecule?
Answer: 3810 nM

Question: And the GI50 (HS 578T breast)?
Answer: 3010 nM

Question: And the TGI (HS 578T breast)?
Answer: 9190 nM

Question: And the GI50 (KM12 colon)?
Answer: 1590 nM

Question: What about the TGI (KM12 colon) of the same molecule?
Answer: 4720 nM

Question: And the GI50 (U251 CNS)?
Answer: 984 nM

Question: What about the TGI (U251 CNS) of the same molecule?
Answer: 2590 nM

Question: And the GI50 (T-47D breast)?
Answer: 1860 nM

Question: And the TGI (T-47D breast)?
Answer: 5990 nM

Question: What about the GI50 (COLO 205 colon) of the same molecule?
Answer: 1150 nM

Question: What about the TGI (COLO 205 colon) of the same molecule?
Answer: 2500 nM

Question: And the GI50 (OVCAR-3 ovarian)?
Answer: 1530 nM

Question: And the TGI (OVCAR-3 ovarian)?
Answer: 3100 nM

Question: What about the GI50 (HL-60(TB) leukemia) of the same molecule?
Answer: 507 nM

Question: And the TGI (HL-60(TB) leukemia)?
Answer: 74600 nM

Question: And the GI50 (NCI-H226 lung)?
Answer: > 100000 nM

Question: And the TGI (NCI-H226 lung)?
Answer: > 100000 nM

Question: What about the GI50 (HCT-116 colon) of the same molecule?
Answer: 1680 nM

Question: What about the TGI (HCT-116 colon) of the same molecule?
Answer: 4840 nM
